Data on 6 compounds can be found in paper PMC8235661, “Photoelectric Dye, NK-5962, as a Potential Drug for Preventing Retinal Neurons from Apoptosis: Pharmacokinetic Studies Based on Review of the Evidence” (Life, 2021).

A short description of series [1]: Reactive oxygen species (ROS) assay under simulated sunlight. The series is classed as physicochemical. Conditions: for Reactive Oxygen Species Generation Singlet oxygen / Reactive Oxygen Species Generation Superoxide: 200 µM, simulated sunlight 1 h, mean ± standard deviation (n = 3). As to the method:
The ROS assay was designed to detect both singlet oxygen and superoxide generated from photo-irradiated chemicals. Briefly, singlet oxygen was measured in aqueous solution by spectrophotometrically monitoring the bleaching of p-nitrosodimethylaniline at 440 nm using imidazole as a selective acceptor of singlet oxygen. Samples containing the tested chemical (20 or 200 μM), p-nitrosodimethylaniline (50 μM), and imidazole (50 μM) in 20 mM sodium phosphate buffer (pH 7.4) were mixed in a tube. Each sample in 200 μL was transferred into a well of a plastic 96-well plate (clear, untreated, and flat-bottomed) and checked for precipitation under a microscope with an objective lens (×100) before light exposure. The plate was subjected to a measurement of absorbance at 440 nm using a microplate spectrophotometer. The plate was fixed in the quartz reaction container with a quartz cover and then irradiated with the simulated sunlight (ultraviolet A/B and visible light, 250 W/m^2, Suntest CPS plus, Atlas Material Testing Technology, Mount Prospect, IL, USA) for 1 h. After agitation on a plate shaker, the UV absorbance at 440 nm was measured. For the determination of superoxide, samples containing the test chemical (20 or 200 μM) and nitroblue tetrazolium (50 μM) in 20 mM sodium phosphate buffer were irradiated with the simulated sunlight for 1 h and the reduction in nitroblue tetrazolium was measured by the increase in absorbance at 560 nm in the same manner as the singlet oxygen determination. Experiments were performed in triplicate wells in three independent runs. As the final concentration, 200 μM test chemical solutions should be subjected to the ROS assay. However, when precipitation could be observed at 200 μM under the optical microscope, additional experiments should be performed under appropriate dilution (20, 50, or 100 μM).

Series [2] is described as follows: PAMPA (parallel artificial membrane permeability assay). The series is classed as in vitro ADME. As to the method: In order to determine the passive membrane diffusion rates, the Corning Gentest Pre-coated PAMPA Plate System was used in the PAMPA test. […] The acceptor plate was then placed on top of the donor plate and incubated at 37 °C without agitation for 4 h. At the end of the incubation, the plates were separated and the solutions from each well of both the acceptor plate and the donor plate were transferred to 96-well plates and mixed with acetonitrile. The final concentrations of compound in both the donor wells and acceptor wells, as well as the concentrations of the initial donor solutions, were analyzed by LC-MS/MS. The permeability of the compound was calculated according to the previous report.

Details of series [3]: method as in PMID 18185985. Conditions: cited from earlier work.

In the case of `CCN1C=C\C(=C/C=C(\C=C/c2cc[n+](CC)c3ccccc23)c2cc[n+](CC)c3ccccc23)c2ccccc21.[I-].[I-]` [NK-4, 1-ethyl-4-[(1Z,3E,5E)-1-(1-ethylquinolin-1-ium-4-yl)-5-(1-ethylquinolin-4-ylidene)penta-1,3-dien-3-yl]quinolin-1-ium;iodide], in series [1], the “phototoxicity conclusion from ROS assay” value is listed as “less phototoxic”.

As for `C=C[C@H]1C[N@@]2CC[C@H]1C[C@H]2[C@H](O)c1ccnc2ccc(OC)cc12` [Quinine], in series [1], the “Reactive Oxygen Species Generation Singlet oxygen” value is 602 ± 7 ΔA440 × 1000 and the “Reactive Oxygen Species Generation Superoxide” value is listed as 348 ± 12 ΔA560 × 1000.

For `COc1cc(O)c(C(=O)c2ccccc2)cc1S(=O)(=O)O` [Sulisobenzone], in series [1], the “Reactive Oxygen Species Generation Singlet oxygen” value was “Not detected” and the “Reactive Oxygen Species Generation Superoxide” value is reported as “Not detected”.

Regarding `Cc1cc(=O)n(-c2ccccc2)n1C` [antipyrine], the Papp at 4 h, 100 μM in series [2] (PAMPA, read-out: PAMPA permeability of reference compound) stood at 11 ×10⁻⁶ cm/s.

`COCCc1ccc(OCC(O)CNC(C)C)cc1` (centres unmarked) [metoprolol]: in series [2] (reference compound at 500 μM), the “PAMPA permeability of reference compound” value was determined as 1.5 ×10⁻⁶ cm/s.

In the case of `O=C(O)c1cc(/N=N/c2ccc(S(=O)(=O)Nc3ccccn3)cc2)ccc1O` [sulfasarazine], the “gastrointestinal absorption in human” value in series [3] is 13%.
